The values below come from patent publication US5773239A, “Mannosidase inhibitors, process for their preparation and their use as therapeutic agents” (Mount Sinai Hospital Corporation., priority 1995, dated 1998).

Each structure is given as a SMILES string.

For assay [1], the target named is T1, rat liver Golgi α-mannosidase II (Rattus norvegicus, UniProt P28494).
T1 construct: The assay for rat liver Golgi α-mannosidase II; from tissue; host or cells: rat liver (Golgi)
T1 sequence (P28494 1-1148): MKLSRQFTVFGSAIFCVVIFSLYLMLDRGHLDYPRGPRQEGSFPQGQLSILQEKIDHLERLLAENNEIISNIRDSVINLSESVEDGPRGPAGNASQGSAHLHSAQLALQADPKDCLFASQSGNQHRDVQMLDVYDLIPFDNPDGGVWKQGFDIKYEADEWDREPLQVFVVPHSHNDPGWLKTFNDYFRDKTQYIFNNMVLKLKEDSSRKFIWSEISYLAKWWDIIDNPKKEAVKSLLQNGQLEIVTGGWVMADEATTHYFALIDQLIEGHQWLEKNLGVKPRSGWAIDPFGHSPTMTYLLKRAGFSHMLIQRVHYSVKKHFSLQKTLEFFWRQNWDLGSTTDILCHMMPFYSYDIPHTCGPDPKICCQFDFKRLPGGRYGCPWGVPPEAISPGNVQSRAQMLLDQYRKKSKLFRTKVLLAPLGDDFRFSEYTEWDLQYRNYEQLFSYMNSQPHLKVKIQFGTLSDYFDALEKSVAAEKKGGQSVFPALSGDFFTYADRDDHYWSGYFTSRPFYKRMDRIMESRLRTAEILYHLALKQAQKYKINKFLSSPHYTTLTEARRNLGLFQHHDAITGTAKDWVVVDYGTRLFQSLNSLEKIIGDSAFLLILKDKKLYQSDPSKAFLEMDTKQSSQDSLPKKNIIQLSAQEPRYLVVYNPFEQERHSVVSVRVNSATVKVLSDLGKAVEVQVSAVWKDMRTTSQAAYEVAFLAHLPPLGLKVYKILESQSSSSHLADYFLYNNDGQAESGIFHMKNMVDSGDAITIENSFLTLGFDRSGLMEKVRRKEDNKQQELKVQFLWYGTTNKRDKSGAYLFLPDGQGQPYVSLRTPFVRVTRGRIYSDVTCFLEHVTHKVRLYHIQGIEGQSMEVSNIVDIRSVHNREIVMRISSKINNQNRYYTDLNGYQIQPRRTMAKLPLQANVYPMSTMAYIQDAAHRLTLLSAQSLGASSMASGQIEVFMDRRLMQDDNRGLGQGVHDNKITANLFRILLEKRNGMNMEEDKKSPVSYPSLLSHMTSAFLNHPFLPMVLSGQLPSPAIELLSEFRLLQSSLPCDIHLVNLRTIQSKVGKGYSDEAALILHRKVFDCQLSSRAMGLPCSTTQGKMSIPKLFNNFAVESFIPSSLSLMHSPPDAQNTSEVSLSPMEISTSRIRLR
Nature of the assay: Rat liver Golgi α-mannosidase II assay. It is filed as biochemical. The conditions noted are these: para-nitrophenyl α-mannose, pH 5.6; read-out: IC50 ManII. How it is done:
The assay for rat liver Golgi α-mannosidase II contained 5 mM para-nitrophenylα-mannose, 40 mM sodium acetate pH 5.6, plus serially diluted test compouunds and mannosidase enzyme in a total volume of 50 ul, in 96 well plates. Plates were incubated 45 min at 37° C., then the reaction was stopped with 50 μl of 0.5M sodium carbonate. […] The lysosomal mannosidase was done in the same procedure but with 40 mM sodium acetate buffer pH 5.0. The numbers in the table are IC50 values in μM for inhibition of mannosidase activity.

A further assay relates to MDAY-D2 tumor cells. The following applies: cited from earlier work.
For a further assay, the system named is B16F10 melanoma cells. The conditions noted are these: 1000 ng/ml; cited from earlier work.

On to `O[C@H]1[C@H]2[C@H](O)CCCN2C[C@H]1O` [SW, Swainsonine, reference compound], for which the IC50 in assay [1] worked out at 100 nM. Further, the “L-PHA concentration to which cells cultured in the presence of SW are resistant” value in the assay with MDAY-D2 tumor cells was more than 100 µg/mL. The “inhibition of organ colonization by B16F10 melanoma cells” value with B16F10 melanoma cells is recorded as more than 90%.

By IC50 is commonly meant the concentration that inhibits the measured activity by half.
